Data on six molecules can be found in patent US20240327331A1, “ESTERS OF 7-COOH CBD DERIVATIVES AND THEIR USE AS PREVENTION, PROPHYLAXIS OF PROGRESSION, AND/OR TREATMENT OF NEUROGENERATIVE DISEASES” (Receptor Pharma INC, priority 2021, published 2024).

Data set [1] addresses T1, GPR3 receptor (Homo sapiens, UniProt P46089). In words: PathHunter β-arrestin2 recruitment assay in CHO-K1 cells expressing GPR3-PK. Format: cell-based. Also on record: host or cells: CHO-K1 (PathHunter eXpress kit). The conditions noted are these: for mode of action at the GPR3 receptor (β-arrestin2 recruitment): 0.1 μM, 1 μM and 10 μM, FIG. 1. From the text: The PathHunter™ eXpress kits containing Chinese hamster ovary (CHO)-K1 cells co-expressing EA-O-arrestin2 human and GPR3-PK were purchased from DiscoverX (Fremont, CA). All cannabinoid ligands were purchased from BDG Synthesis (Wellington, New Zealand).
PathHunter™ eXpress kits were used to measure GPR3-mediated β-arrestin2 recruitment following manufacturer's instructions. In this system, Chinese hamster ovary (CHO)-K1 cell line are stably expressing the GPR3 receptors which were fused to a “ProLink (PK)” fragment of βi-galactosidase to form GPR3-PK. The remaining sequence of β-galactosidase enzyme acceptor (EA) was linked to β-arrestin2 to form EA-β-arrestin2. Recruitment of Si-arrestin2 by receptor activation causes complementation of the two enzyme fragments. Levels of the active enzyme are the direct result of β-arrestin2 recruitment caused by receptor activation and quantified using the PathHunter detection reagent containing β-galactosidase substrates. Cells were plated in DiscoverX cell plating reagent1 in 384-well plates and cultured for 24-48 hours prior to experimentation in a humidified atmosphere at 37° C. and 5% CO2. Cannabinoid ligands were diluted in DiscoverX cell plating reagent1. Cells were then incubated with ligand at 37° C. following manufacturer's recommendations, followed by incubation with detection reagent in the dark for 1 hour at 23° C. Luminescence signal was then detected using a TECAN GENios Pro microplate reader.
Ligand-induced changes in R-arrestin2 recruitment to GPR3 were expressed as percent basal relative luminescence units, which was calculated by dividing luminescence readings in the presence of ligands by basal luminescence readings, times 100. Concentration-response curves were generated by performing nonlinear regression analysis using GraphPad Prism (GraphPad Software, La Jolla, CA). Data were analyzed using one-way analysis of variance (ANOVA) followed by NewmanKeuls post-test. Data points shown are presented as mean±SEM, and were obtained from three independent experiments performed in quadruplicate.
To determine whether CBD and its human metabolites 6-OH-CBD, 7-OH-CBD and 7-COOH-CBD are capable of changing S3-arrestin2 recruitment to GPR3, β-arrestin2 recruitment assays were performed using 0.1 μM and 1 μM and 10 μM concentrations.

Data set [2] deals with T1, GPR3 receptor. The following applies: cited from earlier work; for mode of action at the GPR3 receptor: Laun and Song 2017, Lunn et al 2006.
For data set [3] the following is noted: after CBD, in the body; cited from earlier work.
Data set [4] deals with animal models of epilepsy. The conditions noted are these: cited from earlier work.
Data set [5] has as its system CB1 and CB2 receptors as well as the voltage gated Na channel and mono-amine transporters. The conditions noted are these: physiological relevant concentrations; cited from earlier work.
In data set [6] the test system is icv streptozotocin (stz) rat model of Alzheimer Disease. In words: Novel object recognition test in icv streptozotocin rat model of Alzheimer Disease. The data set is classed as in vivo, Wistar rats. The conditions noted are these: STZ 3 mg/kg icv, daily treatment 8 days, test after 24 h; 1j 25 mg/kg ip, 7-COOH-CBD 20 mg/kg; N=6. From the text: This in vivo model represents a model for the most frequent form of Alzheimer Disease, the late onset or ‘sporadic’ form. The icv injection of stz in the rat brain induces pathological changes that are observed in patients with Alzheimer Disease, like accumulation of beta-amyloid and Tau-protein and the well-known cognitive impairment. This well-known model was first described in the 90-ies by Mayer et al. (1990) and Lannert et al. (1998). The procedure for the creation of the model has recently been described in detail by Moreiro-Silva et al. (2019). In short, a 1-3 mg/kg dose of stz is injected bilateraly by icv injection in Wistar rats, and the animals are allowed to recover for a period of 7 days, after which animals can be evaluated for neurodegenerative changes in behaviour and/or by imaging of the brain.
The novel object recognition data were analyzed using the Student's t-test, with differences being considered significant if p<0.05.
On day 8, the animals were subjected to the novel object recognition (NOR) behavioural test. All objects used for the is test had similar textures, colors, and sizes but distinctive shapes. The rats were placed in a rectangular arena (76×49×57 cm) containing two identical objects (A1+A2) for the habituation and training phase. […] The discrimination index was calculated by: […]

T1 sequence (P46089 whole entry, the tested form may be a part): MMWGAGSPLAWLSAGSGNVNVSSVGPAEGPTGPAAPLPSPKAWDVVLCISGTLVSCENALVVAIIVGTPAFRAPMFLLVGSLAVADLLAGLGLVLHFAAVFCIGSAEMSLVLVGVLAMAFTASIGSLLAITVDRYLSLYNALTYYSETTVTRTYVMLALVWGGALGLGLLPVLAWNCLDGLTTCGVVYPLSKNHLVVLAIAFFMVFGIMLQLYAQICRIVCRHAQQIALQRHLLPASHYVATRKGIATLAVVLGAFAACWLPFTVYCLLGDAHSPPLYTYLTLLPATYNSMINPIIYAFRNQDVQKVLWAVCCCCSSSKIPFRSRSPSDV

Consider `C=C(C)[C@@H]1C[C@H](O)C(C)=C[C@H]1c1c(O)cc(CCCCC)cc1O` [Example 6-OH-CBD], for which, in data set [1], the “mode of action at the GPR3 receptor (β-arrestin2 recruitment)” value (“mode of action … (β-arrestin2 recruitment)” for short) is “weak agonists”.
For the molecule `COc1ccc(S(=O)(=O)c2cc(OC)ccc2S(=O)(=O)c2ccc([C@H](C)NS(C)(=O)=O)cc2)cc1` [Sch.336, N-[1(S)-[4-[[4-methoxy-2-[(4-methoxyphenyl)sulfonyl]phenyl]-sulfonyl]phenyl]ethyl]methanesulfonamide], in data set [2], the “mode of action at the GPR3 receptor” value is given as “inverse agonist”.
As to `C=C(C)[C@@H]1CCC(C(=O)O)=C[C@H]1c1c(O)cc(CCCCC)cc1O` [Example 7-COOH-CBD, (3R-trans)-3-(2,6-dihydroxy-4-pentylphenyl)-4-(1-methylethenyl)-1-cyclohexene-1-carboxylic acid], the “plasma levels of metabolite relative to parent compound CBD” value in data set [3] is recorded as “up to 50 fold”. In addition, the anticonvulsant action result in data set [4] is on record as “devoid of any anticonvulsant action”. In addition, the “binding or modulation in in vitro binding/target panel” value in data set [5] is “no binding or modulation properties”. The “long-term memory index (discrimination index), novel object recognition” value in data set [6] was 79.6±3.4. Also, in data set [1], the “mode of action … (β-arrestin2 recruitment)” value is recorded as “full antagonist”. Also, in data set [1] (10 μM 7-COOH-CBD, ascending concentrations of SR144528), the “competition with SR144528 at the GPR3 binding site” value is given as “displaces the inverse agonist from the GPR3 binding site”.
As to “(3R-trans)-3-(2,6-dihydroxy-4-pentylphenyl)-4-(1-methylethenyl)-1-cyclohexene-1-carboxylic acid cyclopropane ester [Example 1j]”, in data set [6], the “long-term memory index (discrimination index), novel object recognition” value turned out to be 80.5±3.9.
For orientation: IC50 means the concentration at which inhibition is half-maximal. As for `C=C(C)[C@@H]1CCC(C)=C[C@H]1c1c(O)cc(CCCCC)cc1O` [CBD, Cannabidiol], in data set [2], the “mode of action at the GPR3 receptor” value is “inverse agonist”. For the same molecule, in data set [2] (inverse agonism), the IC50 is 1220 nM. The “inhibition of GPR3 receptor activity” value in data set [2] (inverse agonist, dose-dependent) was 39%. In data set [1], the “mode of action … (β-arrestin2 recruitment)” value is on record as “inverse agonist”.
As for `C=C(C)[C@@H]1CCC(CO)=C[C@H]1c1c(O)cc(CCCCC)cc1O` [Example 7-OH-CBD, 7-hydroxy-CBD], in data set [3], the “plasma levels of metabolite relative to plasma levels of parent compound CBD” value was “about 50%”. Also, in data set [4], the anticonvulsant action entry is on record as “equipotency to CBD”. In addition, the “mode of action … (β-arrestin2 recruitment)” value in data set [1] is “weak agonists”.
